Assay results: PubChem BioAssay (NCI)
Several values for one entry are separate records, joined by “and”; a condition that tells them apart may be missing. Identical values can stand only once.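 The compound was tested at five concentrations on cells cultured in 96-well plates, with a 48-hour exposure period. GI50: concentration for 50% inhibition of growth. TGI denotes the concentration required for complete inhibition of growth.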

Key:
Assay in all cases: NCI-60 cell line screen, 48 h
[1] = system: NCI/ADR-RES ovarian
[2] = system: RXF 393 renal
[3] = system: SF-539 CNS
[4] = system: IGROV1 ovarian
[5] = system: HOP-62 NSCLC
[6] = system: OVCAR-8 ovarian
[7] = system: SN12C renal
[8] = system: MOLT-4 leukemia
[9] = system: CAKI-1 renal
[10] = system: NCI-H522 lung

Row | SMILES | TGI [1] | TGI [2] | TGI [3] | TGI [4] | TGI [5] | TGI [6] | TGI [7] | TGI [8] [µM] | TGI [9] [µM] | TGI [10] | GI50 [1] [µM] | GI50 [2] [µM] | GI50 [3] [µM] | GI50 [4] [µM] | GI50 [5] [µM] | GI50 [6] [µM] | GI50 [7] [µM] | GI50 [8] [µM] | GI50 [9] [µM] | GI50 [10] [µM]
1 | CC(=O)OC(C)(C)CCC(=O)[C@](C)(O)[C@H]1[C@H](O)C[C@@]2(C)[C@@H]3CC=C4C(C)=C(OC5OC(CO)C(O)C(O)C5O)C(=O)C[C@@H]4[C@]3(C)C(=O)C[C@]12C (stereo partly drawn) | > 100 µM | > 100 µM | > 100 µM | > 100 µM | > 100 µM | > 100 µM | > 100 µM | > 100 | > 100 | > 100 µM | – | – | – | – | – | – | – | – | – | –
2 | COc1cccc(C2SC(C)C(=O)N2CCc2cccs2)c1 (stereo not drawn) | 12.7 µM | 16.4 µM | 13.6 µM | 15.7 µM | 14.9 µM | 14.3 µM | 13.5 µM | 10.7 | 10.5 | 5.15 µM | 2.6 | 4.26 | 3.6 | 2.01 | 3.12 | 3.49 | 3.15 | 2.34 | 2.07 | 1.71
3 | COc1c2ccsc2c(OC)c2ccsc12 | > 100 µM | > 100 µM | > 100 µM | > 100 µM | > 100 µM | > 100 µM | > 100 µM | > 100 | 40 | > 100 µM | – | – | – | – | – | – | – | – | – | –
4 | COCC12CCC(OC)C34C5CC6(O)C(OC)CC(OC(C)=O)(C5C6OC(=O)c5ccccc5)C(C(OC)C13)C4N(C)C2 (stereo not drawn) | > 100 µM | > 100 µM | > 100 µM | > 100 µM | > 100 µM | > 100 µM | > 100 µM | > 100 | > 100 | > 100 µM | – | – | – | – | – | – | – | – | – | –
5 | COc1ccc(C2SCC(=O)N2NC(=O)C(C)Oc2ccccc2C)cc1 (stereo not drawn) | > 100 µM | > 100 µM | > 100 µM | > 100 µM | > 100 µM | > 100 µM | > 100 µM | 87.9 | > 100 | > 100 µM | – | – | – | – | – | – | – | – | – | –
6 | Cc1c(O)c(OC2OC(CO)C(O)C(O)C2O)cc2c1C=C[C@@H]1[C@@]2(C)C(=O)C[C@]2(C)[C@@H]([C@@](C)(O)C(=O)CCC(C)(C)O)[C@H](O)C[C@@]12C (stereo partly drawn) | 69.4 µM | 38.1 µM | 43.9 µM | 44.3 µM | > 100 µM | > 100 µM | 44.1 µM | 63.7 | 36.5 | 67.2 µM | – | – | – | – | – | – | – | – | – | –
7 | CC12ON(P(=O)(c3ccccc3)c3ccccc3)C(C)(c3ccccc31)c1ccccc12 | > 100 µM | > 100 µM | > 100 µM | > 100 µM | > 100 µM | > 100 µM | > 100 µM | > 100 | > 100 | > 100 µM | – | – | – | – | – | – | – | – | – | –
8 | COc1cc(CCN(C)C)cc(OC)c1OC | > 100 µM | > 100 µM | > 100 µM | > 100 µM | > 100 µM | > 100 µM | > 100 µM | > 100 | > 100 | > 100 µM | – | – | – | – | – | – | – | – | – | –
9 | COc1cc(OC2OC(COC(=O)c3cc(O)c(O)c(O)c3)C(O)C(O)C2O)ccc1O (stereo not drawn) | > 100 µM | > 100 µM | > 100 µM | > 100 µM | > 100 µM | > 100 µM | > 100 µM | > 100 | > 100 | > 100 µM | – | – | – | – | – | – | – | – | – | –
10 | CCOC(=O)C(=O)CC(=O)C1=C(c2ccccc2OC)CC(c2cccs2)=CC1=O | > 100 µM | > 100 µM | > 100 µM | > 100 µM | > 100 µM | > 100 µM | > 100 µM | > 100 | > 100 | > 100 µM | – | – | – | – | – | – | – | – | – | –
11 | CCN(CC)CCOC(=O)Cc1cccc2c(=O)cc(-c3ccccc3)oc12 | 62.5 µM and > 283 µM | 58.7 µM and > 144 µM | 62.5 µM and > 179 µM | 62.5 µM and > 216 µM | 62.5 µM and > 144 µM | 62.5 µM and > 254 µM | 62.5 µM and > 320 µM | 62.5 | – | 62.5 µM and > 154 µM | 123 | 52.6 | 58.6 | 82.9 | 25.9 | – | 92.8 | 3.37 | 252 | 72.8
12 | COc1ccc2c(c1)CCN1CCCc3ccccc3C21 (stereo not drawn) | > 100 µM | > 100 µM | 34.7 µM | > 100 µM | > 100 µM | > 100 µM | > 100 µM | > 100 | > 100 | > 100 µM | – | – | – | – | – | – | – | – | – | –
13 | CCCCCCCCCCCCCCCCCC(=O)Nc1ccn(C2CCC(COP(=O)(O)O)O2)c(=O)n1 (stereo not drawn) | > 100 µM | > 100 µM | > 100 µM | > 100 µM | > 100 µM | > 100 µM | > 100 µM | > 100 | > 100 | > 100 µM | – | – | – | – | – | – | – | – | – | –
14 | COC1(c2cccs2)c2ccccc2C(OC)(c2cccs2)c2ccccc21 (stereo not drawn) | > 100 µM | > 100 µM | > 100 µM | > 100 µM | > 100 µM | > 100 µM | > 100 µM | > 100 | > 100 | > 100 µM | – | – | – | – | – | – | – | – | – | –
15 | O=C1CS[C@@](CC(c2ccc(Cl)cc2)c2ccc(Cl)cc2)(c2ccc(Cl)cc2)N1 | > 100 µM | 17.6 µM | 64.4 µM | > 100 µM | 82 µM | > 100 µM | 5.42 µM | 45 | > 100 | > 100 µM | – | – | – | – | – | – | – | – | – | –
16 | O=[N+]([O-])c1cccc(Cl)c1Oc1ccc(S(=O)(=O)/N=C(\NO)Nc2ccc(Cl)cc2)cc1 | 50.7 µM | 30.9 µM | 28.1 µM | 35.6 µM | 45.4 µM | 39.6 µM | 25.7 µM | 19.3 | 25.8 | 20.2 µM | – | – | – | – | – | – | – | – | – | –
17 | CCCN(CCC)C1CCc2c(ccc3cc[nH]c23)C1 (stereo not drawn) | > 100 µM | > 100 µM | > 100 µM | > 100 µM | > 100 µM | > 100 µM | > 100 µM | 96.7 | > 100 | > 100 µM | – | – | – | – | – | – | – | – | – | –
18 | CCOc1ccc(/C=C2\NC(=S)N(/C=C3\C(=O)Oc4ccccc4C3=O)C2=O)cc1 | 45.7 µM | 33.6 µM | 36.5 µM | 61.7 µM | 61.9 µM | 36.7 µM | 45.3 µM | 51.2 | 53.5 | 51.2 µM | – | – | – | – | – | – | – | – | – | –
19 | COC12C=CC(C=C1C#N)CC2 (stereo not drawn) (tested in a mixture with another compound) | > 100 µM | > 100 µM | > 100 µM | > 100 µM | > 100 µM | > 100 µM | > 100 µM | > 100 | > 100 | > 100 µM | – | – | – | – | – | – | – | – | – | –
20 | Nc1nc(=O)n(C2OC(CO)C(O)C2O)c2ncc(-c3ccc(-c4ccccc4)cc3)nc12 (stereo not drawn) | > 100 µM | > 100 µM | > 100 µM | > 100 µM | > 100 µM | > 100 µM | > 100 µM | > 100 | > 100 | > 100 µM | – | – | – | – | – | – | – | – | – | –
